ChEMBL document CHEMBL1201862, “PubChem BioAssay data set” (2004)
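Five concentrations, 48 hours, 96-well plates. Abbreviation: GI50, concentration required for 50% inhibition of growth.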 Active and inactive are the calls of the source. Rule as the data show it: active = GI50 up to about 1.1 µM and inactive = higher.

Legend:
Assay in all cases: inhibition of tumour cell growth, NCI panel, 48 h
786-0 = tested on: 786-0
DU-145 = tested on: DU-145
EKVX = tested on: EKVX
HCC 2998 = tested on: HCC 2998
HCT-116 = tested on: HCT-116
HOP-62 = tested on: HOP-62
HOP-92 = tested on: HOP-92
KM12 = tested on: KM12
M14 = tested on: M14
MCF7 = tested on: MCF7
MOLT-4 = tested on: MOLT-4
NCI-H23 = tested on: NCI-H23
NCI/ADR-RES = tested on: NCI/ADR-RES
SF-295 = tested on: SF-295
SK-MEL-2 = tested on: SK-MEL-2
SNB-19 = tested on: SNB-19
UACC-257 = tested on: UACC-257
UACC-62 = tested on: UACC-62
NCI-H522 = tested on: NCI-H522
SN12C = tested on: SN12C

Row | SMILES | GI50 (786-0) | GI50 (DU-145) | GI50 (EKVX) | GI50 (HCC 2998) | GI50 (HCT-116) | GI50 (HOP-62) | GI50 (HOP-92) | GI50 (KM12) | GI50 (M14) | GI50 (MCF7) | GI50 (MOLT-4) | GI50 (NCI-H23) | GI50 (NCI/ADR-RES) | GI50 (SF-295) | GI50 (SK-MEL-2) | GI50 (SNB-19) | GI50 (UACC-257) | GI50 (UACC-62) | GI50 (NCI-H522) | GI50 (SN12C)
1 | Cc1ccnc(NC(=S)Nc2ccc([N+](=O)[O-])cc2)c1 | 75.3 µM (inactive) | 34.6 µM (inactive) | > 100 µM (inactive) | > 100 µM (inactive) | > 100 µM (inactive) | 78 µM (inactive) | 31.1 µM (inactive) | > 100 µM (inactive) | > 100 µM (inactive) | > 100 µM (inactive) | > 100 µM (inactive) | > 100 µM (inactive) | 56.5 µM (inactive) | 62.8 µM (inactive) | > 100 µM (inactive) | > 100 µM (inactive) | > 100 µM (inactive) | > 100 µM (inactive) | – | –
2 | CCOC(=O)C1CCC(=O)N1C(=O)c1ccccc1 (centres undefined) | > 100 µM (inactive) | > 100 µM (inactive) | > 100 µM (inactive) | > 100 µM (inactive) | > 100 µM (inactive) | > 100 µM (inactive) | > 100 µM (inactive) | > 100 µM (inactive) | > 100 µM (inactive) | > 100 µM (inactive) | > 100 µM (inactive) | > 100 µM (inactive) | > 100 µM (inactive) | > 100 µM (inactive) | – | > 100 µM (inactive) | > 100 µM (inactive) | 7.83 µM (inactive) | > 100 µM (inactive) | > 100 µM (inactive)
3 | Clc1nc(-c2ccccc2)nc(Cl)c1Cl | 8.05 µM (inactive) | 15.8 µM (inactive) | 16.2 µM (inactive) | 7.71 µM (inactive) | 5.6 µM (inactive) | 18 µM (inactive) | 13.9 µM (inactive) | 11.6 µM (inactive) | 7.14 µM (inactive) | 8.15 µM (inactive) | 3.1 µM (inactive) | 14.7 µM (inactive) | 22.5 µM (inactive) | 17.3 µM (inactive) | – | 17.1 µM (inactive) | 14.6 µM (inactive) | 13.7 µM (inactive) | 3.21 µM (inactive) | 16.8 µM (inactive)
4 | Cc1ccc2c(c1)C(=O)C1(Cc3ccccc3C1=O)C2 (centres undefined) | > 100 µM (inactive) | > 100 µM (inactive) | > 100 µM (inactive) | > 100 µM (inactive) | > 100 µM (inactive) | 47 µM (inactive) | 30.1 µM (inactive) | > 100 µM (inactive) | > 100 µM (inactive) | > 100 µM (inactive) | > 100 µM (inactive) | > 100 µM (inactive) | > 100 µM (inactive) | > 100 µM (inactive) | – | > 100 µM (inactive) | > 100 µM (inactive) | 28.9 µM (inactive) | > 100 µM (inactive) | > 100 µM (inactive)
5 | C#CC(O)/C=C/CCCCCCC#CC/C=C\CC#CCCCCCC/C=C/C(O)C#C (centres undefined) | 2.09 µM (inactive) | 3.01 µM (inactive) | 2.3 µM (inactive) | 1.8 µM (inactive) | 1.57 µM (inactive) | 2.1 µM (inactive) | 2.4 µM (inactive) | 2.32 µM (inactive) | 1.03 µM (active) | 10.8 µM (inactive) | 0.111 µM (active) | 0.701 µM (active) | 2.55 µM (inactive) | 13.9 µM (inactive) | 2.99 µM (inactive) | 12.4 µM (inactive) | 2.39 µM (inactive) | 2.64 µM (inactive) | – | 1.66 µM (inactive)
6 | COc1ccccc1NC(=S)N/N=C/c1c(C)n(C)n(-c2ccccc2)c1=O | > 100 µM (inactive) | 40.8 µM (inactive) | > 100 µM (inactive) | > 100 µM (inactive) | > 100 µM (inactive) | 53.3 µM (inactive) | 43.6 µM (inactive) | 31.8 µM (inactive) | 61.8 µM (inactive) | > 100 µM (inactive) | 41.5 µM (inactive) | > 100 µM (inactive) | 21.1 µM (inactive) | 59.3 µM (inactive) | > 100 µM (inactive) | > 100 µM (inactive) | > 100 µM (inactive) | > 100 µM (inactive) | – | –
7 | N#CC(C#N)=CNC(=S)c1ccncc1 | > 100 µM (inactive) | > 100 µM (inactive) | > 100 µM (inactive) | 59.8 µM (inactive) | 53.6 µM (inactive) | > 100 µM (inactive) | – | > 100 µM (inactive) | > 100 µM (inactive) | 76.9 µM (inactive) | 64.3 µM (inactive) | > 100 µM (inactive) | > 100 µM (inactive) | > 100 µM (inactive) | > 100 µM (inactive) | 41.6 µM (inactive) | > 100 µM (inactive) | > 100 µM (inactive) | 21.9 µM (inactive) | 87.5 µM (inactive)
8 | Cc1ccsc1C(=O)C(CC(=O)c1cccs1)c1ccsc1 (centres undefined) | > 100 µM (inactive) | > 100 µM (inactive) | 79.6 µM (inactive) | > 100 µM (inactive) | 16.1 µM (inactive) | > 100 µM (inactive) | > 100 µM (inactive) | > 100 µM (inactive) | > 100 µM (inactive) | 76.2 µM (inactive) | 77.3 µM (inactive) | > 100 µM (inactive) | 37.7 µM (inactive) | > 100 µM (inactive) | – | > 100 µM (inactive) | > 100 µM (inactive) | > 10 µM (inactive) | > 100 µM (inactive) | > 100 µM (inactive)
9 | c1ccc2oc(-c3ccc(-c4nc5ccccc5o4)c4c3CC4)nc2c1 | > 100 µM (inactive) | > 100 µM (inactive) | > 100 µM (inactive) | > 100 µM (inactive) | > 100 µM (inactive) | > 100 µM (inactive) | > 100 µM (inactive) | > 100 µM (inactive) | > 100 µM (inactive) | > 100 µM (inactive) | > 100 µM (inactive) | > 100 µM (inactive) | > 100 µM (inactive) | > 100 µM (inactive) | > 100 µM (inactive) | > 100 µM (inactive) | > 100 µM (inactive) | > 100 µM (inactive) | – | > 100 µM (inactive)
10 | Cn1c(=O)c(Br)c(C=O)n(CCO[N+](=O)[O-])c1=O | 5.14 µM (inactive) | 27.2 µM (inactive) | 2.78 µM (inactive) | 15.4 µM (inactive) | 3.78 µM (inactive) | 21.6 µM (inactive) | 2.72 µM (inactive) | – | 3.99 µM (inactive) | 1.97 µM (inactive) | 1.87 µM (inactive) | 5.7 µM (inactive) | 1.74 µM (inactive) | – | 3.59 µM (inactive) | 26.2 µM (inactive) | – | 1.23 µM (inactive) | – | 4.34 µM (inactive)
11 | Cc1noc(C)c1/N=N/c1ccc2nonc2c1N | 42.4 µM (inactive) | > 100 µM (inactive) | 2.66 µM (inactive) | > 100 µM (inactive) | > 100 µM (inactive) | 79.4 µM (inactive) | 87.7 µM (inactive) | > 100 µM (inactive) | > 100 µM (inactive) | > 100 µM (inactive) | > 100 µM (inactive) | 46.5 µM (inactive) | > 100 µM (inactive) | 67.3 µM (inactive) | > 100 µM (inactive) | 26.1 µM (inactive) | > 100 µM (inactive) | > 100 µM (inactive) | – | > 100 µM (inactive)
